The values that follow are results of earlier work, collected in patent US20170135934A1, “Mouth Rinse for Prevention of Periodontal Disease” (priority 2015, published 2017).

For data set [1] the following is noted: healthy volunteers; for urinary losses of dipeptides: continuous infusion; for side effects: continuous infusion of supplemented amino acid solution.
Data set [2] deals with intracellular glutamine pool. As to conditions: intravenous supply following cholecystectomy.
For data set [3], the system named is biopsies from normal human ileum, proximal colon and rectosigmoid colon. The note with it: compared with saline.
For data set [4] the following is noted: patients, TPN over 5 days.
Data set [5] has as its system rat lymphocytes. As to conditions: glutamine added to the medium.
Data set [6] has as its system intestinal epithelial cell. The note with it: heat shock at 43 degrees C.; concentrations higher than 1 mM.

Like-named read-outs stand apart in the source and are kept apart here. Residues, ends and D or L forms follow the SMILES beside them.

For the compound `C[C@H](N)C(=O)N[C@@H](CCC(N)=O)C(=O)O` [AlaGln, L-Alanyl-L-gutamine] (H-Ala-Gln-OH), in data set [1], the “urinary losses of dipeptides” value was “about 1 % of the given dose” and the side effects result is on record as “not accompanied by any side effects”. Moreover, in data set [2], the “intracellular glutamine pool preserved” value is 91 % of postoperative value. Also, the crypt cell proliferation result in data set [3] is reported as “equally stimulated crypt cell proliferation”. Moreover, in data set [4], the peptide in plasma result is recorded as “not detectable” and the side effects entry is “free of any side effects”.
Take `NC(=O)CC[C@H](N)C(=O)O` [glutamine]: in data set [5], the “proliferation of rat lymphocytes (radioactive thymidine)” value is recorded as “four-fold”. Also, the “percentage of floating cells” value in data set [6] is reported as “dose dependent decrease”. In addition, in data set [3], the crypt cell proliferation entry is listed as “equally stimulated crypt cell proliferation”.
`NCC(=O)N[C@@H](CCC(N)=O)C(=O)O` [GlyGln, glycyl-L glutamine, reference compound] (H-Gly-Gln-OH): in data set [1], the “urinary losses of dipeptides” value is “about 1 % of the given dose” and the side effects result was “not accompanied by any side effects”.
